Reference: patent US12171744B2, “Pharmaceutical combinations for the treatment of cancer” (Presage Biosciences, Inc., priority 2016, dated 2024)
“Also recorded” adds a separate entry of the source.

Experiments:
[1] = Body weight in HCC1187 TNBC mouse model; conditions: in vivo
Procedure: Mice were enrolled for study when tumors reached an average volume of 150-200 mm^3. Tumor volume was calculated as V=length×width×height, all three dimensions measured using digital calipers along with body weight. Animals were removed from the study when—any one of the three measured dimensions of the tumor exceeding 2 cm, volume exceeding 2500 mm^3, ulceration or body weight loss greater than 20%.

CDK4 = target: T1, CDK4 (Homo sapiens, UniProt P11802); assay: Kinase inhibition profiling (filter binding assay with γ-33P-ATP); format: biochemical
T1 construct: purchased Reaction Biology Corp. (testing facility)
Procedure: (§1) For each kinase, an IC50 value were calculated from a 10-point concentration curve of the test article and converted to Ki values.

CDK6 = target: T2, CDK6 (Homo sapiens, UniProt Q00534); assay: as above; format: biochemical
T2 construct: purchased Reaction Biology Corp. (testing facility)
Procedure: as §1

CDK1 = target: T3, CDK1 (Homo sapiens, UniProt P06493); assay: as above; format: biochemical
T3 construct: purchased Reaction Biology Corp. (testing facility)
Procedure: as §1

[2] = tested on: Ramos Burkitt's lymphoma cells; assay: CIVO microinjection, cleaved caspase-3 staining; format: in vivo, mice; conditions: marker of apoptosis
Procedure: Mice were enrolled into CIVO drug studies when the tumor volume reached approximately 1000 mm^3. Microinjection studies were performed using the CIVO device as previously described (Klinghoffer et al, Science Translational Medicine 2015) The device was configured with 6 injection needles set for a 6 mm injection length and a total volume delivery of 3 μl. A fluorescent tracking marker (FTM) was added to each drug reservoir in vehicle for delivery along with each drug or drug combination. All micro-doses were equivalent to or lower than what would be allowed under FDA guidelines for Exploratory IND (Investigational New Drug) studies and by solubility of drug into vehicle. Total amounts of agents injected are tabulated below in Table 4.
FIGS. 5A-5D show Ramos Burkitt's lymphoma cells stained for cleaved caspase-3 (CC3) (shown in red) as a marker of apoptosis.

Toledo/Dox1000 cells = assay: CIVO microinjection, CC3 expression; parameters: species or system mice; conditions: mouse, in vivo
Procedure: (§2) Cell lines shown in Table 1, adherent or suspension, were treated in 6-well dishes or T10 flasks respectively, seeded at one million per ml density prior to treatment in total volumes of 3-10 ml. All agents used for in vitro cell treatments were formulated in water/DMSO to achieve required concentrations (as stated in respective figure labels/legends) with DMSO concentrations not exceeding 0.01%. Drug sources are indicated in table under ‘CIVO microinjection studies’. Cells were harvested at experimental time points: 2, 6, or 24 hours post treatment as indicated in respective figures, first by washing cells twice in ice-cold PBS in 15 ml falcon tubes, centrifugation at 1000 rpm for 5 mins followed by lysis of the respective cell pellets as described in section below. Note: Drug resistant NUDHL1 Dox 1000 nM and Toledo Dox 1000 nM cell lines were generated at Presage by culturing parental lines in media with stepwise increments in Doxorubicin concentration over several passages. These cells were used to generate xenografts when resistance to 1 uM Dox was achieved.
Mice were enrolled into CIVO drug studies when the tumor volume reached approximately 1000 mm^3. […]

38 different kinases = assay: Comparison of inhibition profiles on 38 different kinases; format: biochemical; conditions: compared with flavopiradol
U2932 model of DLBCL = assay: Western blot of treated cells; format: cell-based; conditions: increasing concentration of voruciclib, single agent
Procedure: as §2, with “These cells were used to generate xenografts when resistance to 1 uM Dox was achieved.” left out
Protein lysates were prepared by adding ice-cold 1×RIPA Buffer (from 10×, Millipore) with 1×-3× Halt protease and phosphatase inhibitor cocktail (100×, Pierce) to cell pellets, followed by pulse sonication (˜3-5 secs) three times. […] Protein samples were quantified using Bradford assay (Biorad) at 1:10 or higher dilutions using appropriate blank controls with 1×RIPA. […]

[3] = tested on: HCC1187 triple negative breast cancer cells; assay: Western blot of treated cells; format: cell-based
Procedure: as §2
Protein lysates were prepared by adding ice-cold 1×RIPA Buffer (from 10×, Millipore) with 1×-3× Halt protease and phosphatase inhibitor cocktail (100×, Pierce) to cell pellets, followed by pulse sonication (˜3-5 secs) three times. Lysates were cleared by centrifugation at 14K rpm for 15-20 mins and the supernatant (lysate) was collected for further analysis. To prepare lysates from cryopreserved xenograft tumor tissue, tissue was first homogenized using a hand-held tissue homogenizer (Cole Palmer) in above lysis buffer followed by pulse sonication and centrifugation as described above. Above steps were carried out under ice cold conditions. […] 20-25 micrograms of protein from each sample were subject to SDS-PAGE using BOLT 4-12% Bis-Tris gels (Thermofisher) and transferred to either 0.45 or 0.2 micron pore size membranes (as applicable based on protein molecular size), and either nitrocellulose (NC) or pvdf (Thermofisher) using manufacturer's protocol, blocked for one hour in 5% milk at room temperature, probed with primary antibodies (Table 2) at 4 deg C. overnight and corresponding HRP-conjugated secondary antibodies (Jackson Immunoresearch, 1:10,000-1:20,000 dilutions) for 1 hour at room temperature. Three PBS/0.01% Tween-20 washes (5-10 mins each) were carried out after each antibody incubation. ECL chemiluminescent substrate (Pierce or GE) and autoradiographic film (Thermofisher) was used for detection of protein signals.
1 ug of mRNA from each condition was used to generate cDNA using the High Capacity cDNA Reverse Transcription Kit (Applied Biosystems) and manufacturer's protocol. 100 ng cDNA was used to conduct a PCR assay to amplify XBP1 u or splice forms (Thermofisher PCR Supermix)—94 deg C. for 2 mins, (94 deg C. for 15 secs, 55 deg C. for 30 secs, 72 deg C. for 1 min)×30 cycles, 72 deg C. for 7 mins, hold at 4 deg C.

[4] = Western blot, voruciclib and bortezomib in combination

T2 sequence (Q00534 whole entry): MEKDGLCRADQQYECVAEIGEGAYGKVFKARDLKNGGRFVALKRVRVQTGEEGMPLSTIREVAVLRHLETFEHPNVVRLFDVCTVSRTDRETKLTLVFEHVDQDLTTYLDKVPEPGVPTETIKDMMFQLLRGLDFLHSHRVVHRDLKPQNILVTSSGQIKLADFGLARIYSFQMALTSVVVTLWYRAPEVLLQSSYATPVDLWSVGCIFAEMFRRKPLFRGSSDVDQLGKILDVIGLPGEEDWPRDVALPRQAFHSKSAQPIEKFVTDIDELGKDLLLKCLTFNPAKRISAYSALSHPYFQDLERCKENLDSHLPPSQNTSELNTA
T2 sequence (P24385 whole entry partner): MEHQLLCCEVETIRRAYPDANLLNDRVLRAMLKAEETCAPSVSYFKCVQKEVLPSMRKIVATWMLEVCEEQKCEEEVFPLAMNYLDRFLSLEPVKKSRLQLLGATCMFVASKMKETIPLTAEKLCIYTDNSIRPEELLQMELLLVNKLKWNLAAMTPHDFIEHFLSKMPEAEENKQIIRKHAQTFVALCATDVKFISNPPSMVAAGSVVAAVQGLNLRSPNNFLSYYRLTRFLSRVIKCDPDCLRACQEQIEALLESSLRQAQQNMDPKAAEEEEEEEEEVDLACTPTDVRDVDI
T3 sequence (P06493 whole entry): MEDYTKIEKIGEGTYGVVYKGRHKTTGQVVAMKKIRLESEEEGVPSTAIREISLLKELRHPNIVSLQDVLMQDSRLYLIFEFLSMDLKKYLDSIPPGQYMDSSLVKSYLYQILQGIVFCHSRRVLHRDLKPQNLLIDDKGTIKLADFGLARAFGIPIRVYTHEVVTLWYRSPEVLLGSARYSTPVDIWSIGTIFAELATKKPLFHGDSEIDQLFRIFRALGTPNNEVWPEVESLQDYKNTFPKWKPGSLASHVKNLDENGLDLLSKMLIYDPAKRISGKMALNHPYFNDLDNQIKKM
T3 sequence (P14635 whole entry partner): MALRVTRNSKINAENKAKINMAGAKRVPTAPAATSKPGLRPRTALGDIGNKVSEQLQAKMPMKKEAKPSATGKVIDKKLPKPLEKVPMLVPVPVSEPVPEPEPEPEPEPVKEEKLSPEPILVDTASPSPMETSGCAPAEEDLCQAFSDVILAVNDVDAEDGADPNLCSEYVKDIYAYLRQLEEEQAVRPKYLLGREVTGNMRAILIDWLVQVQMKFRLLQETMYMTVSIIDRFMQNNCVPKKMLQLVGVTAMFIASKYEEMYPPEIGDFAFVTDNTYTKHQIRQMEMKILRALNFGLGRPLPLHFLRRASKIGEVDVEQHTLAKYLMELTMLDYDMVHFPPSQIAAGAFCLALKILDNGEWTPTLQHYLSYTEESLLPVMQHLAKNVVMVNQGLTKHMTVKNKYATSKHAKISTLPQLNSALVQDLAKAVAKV
T1 sequence (P11802 whole entry): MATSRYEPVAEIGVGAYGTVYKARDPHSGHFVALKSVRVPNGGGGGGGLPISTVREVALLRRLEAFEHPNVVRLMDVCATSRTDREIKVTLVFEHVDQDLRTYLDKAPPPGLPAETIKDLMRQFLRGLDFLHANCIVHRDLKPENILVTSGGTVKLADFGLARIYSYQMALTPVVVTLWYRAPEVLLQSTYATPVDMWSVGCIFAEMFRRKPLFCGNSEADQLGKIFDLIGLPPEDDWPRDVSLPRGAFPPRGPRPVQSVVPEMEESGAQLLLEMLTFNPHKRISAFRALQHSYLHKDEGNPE
T1 sequence (P24385 whole entry partner): as the sequence (P24385 whole entry partner) above

In the case of `CN1CC[C@@H](c2c(O)cc(O)c3c(=O)cc(-c4ccc(C(F)(F)F)cc4Cl)oc23)[C@@H]1CO` (relative stereo) [voruciclib, (+)-trans-2-(2-Chloro-4-trifluoromethylphenyl)-5,7-dihydroxy-8-(2-hydroxymethyl-1-methylpyrrolidin-3-yl)-chromen-4-one], the “body weight of mice” value [1] is reported as “unaffected”, the potency (CDK4) is reported as “single digit” and the potency (CDK6) is reported as “single digit”. For the same molecule, the potency (CDK1) was “single digit”, the “expression of CC3” value [2] was “slight increase” and the CC3 expression (Toledo/Dox1000 cells) was “slight effect”. For the same molecule, the “specificity for CDKs” value (38 different kinases) was “more specific for CDKs than flavopiradol”, the MCL-1 (U2932 model of DLBCL) was “suppresses” and the “apoptosis (cPARP)” value (U2932 model of DLBCL) was “increases as the concentration of voruciclib increases”. The MCL-1 protein expression ([3]; Western blot, compared to untreated sample) was “reduced”, the “bortezomib-induced increase in MCL-1 expression” value [3, 4] was “decreased; also recorded: diminishes” and the “bortezomib-induced upregulation of XIAP” value [3, 4] was “diminishes”. The XBP1 upregulation ([3]; voruciclib combined with either bortezomib or tunicamycin) was “diminished”.
